Test [1] has as its target T1, Tyrosine-protein kinase JAK3 (Homo sapiens) (UniProt P52333).
T1 sequence (whole entry): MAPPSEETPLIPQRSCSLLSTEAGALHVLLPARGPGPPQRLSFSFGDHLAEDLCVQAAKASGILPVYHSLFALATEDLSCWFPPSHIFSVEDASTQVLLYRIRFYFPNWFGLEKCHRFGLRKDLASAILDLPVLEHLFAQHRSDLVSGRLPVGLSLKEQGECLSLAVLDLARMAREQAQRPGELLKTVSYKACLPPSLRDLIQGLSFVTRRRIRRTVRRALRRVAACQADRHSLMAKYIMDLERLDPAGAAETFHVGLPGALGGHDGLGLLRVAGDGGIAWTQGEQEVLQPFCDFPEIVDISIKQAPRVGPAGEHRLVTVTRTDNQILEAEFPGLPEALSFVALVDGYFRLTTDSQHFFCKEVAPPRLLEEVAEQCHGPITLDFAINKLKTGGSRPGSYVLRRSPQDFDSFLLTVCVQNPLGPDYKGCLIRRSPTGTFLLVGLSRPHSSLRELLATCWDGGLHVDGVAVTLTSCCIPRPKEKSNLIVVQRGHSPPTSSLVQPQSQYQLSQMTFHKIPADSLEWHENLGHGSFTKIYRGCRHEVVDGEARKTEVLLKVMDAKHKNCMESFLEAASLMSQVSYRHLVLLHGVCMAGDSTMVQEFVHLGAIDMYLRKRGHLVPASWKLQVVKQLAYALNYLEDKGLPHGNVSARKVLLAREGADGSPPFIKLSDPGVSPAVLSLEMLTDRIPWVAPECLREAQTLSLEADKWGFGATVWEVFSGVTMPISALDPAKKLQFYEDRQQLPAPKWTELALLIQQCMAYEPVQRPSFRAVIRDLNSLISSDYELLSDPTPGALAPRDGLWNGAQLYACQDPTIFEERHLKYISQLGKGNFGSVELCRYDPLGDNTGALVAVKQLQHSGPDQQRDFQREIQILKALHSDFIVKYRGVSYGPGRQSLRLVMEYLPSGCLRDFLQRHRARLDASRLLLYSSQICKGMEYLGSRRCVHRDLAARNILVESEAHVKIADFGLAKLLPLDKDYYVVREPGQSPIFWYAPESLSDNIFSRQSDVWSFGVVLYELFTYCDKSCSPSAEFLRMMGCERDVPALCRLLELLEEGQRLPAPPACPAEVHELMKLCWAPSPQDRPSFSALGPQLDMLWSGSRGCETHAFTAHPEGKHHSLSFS
Kind of test: Selectivity interaction (KinomeScan (DiscoverX)) EUB0000138c JAK3. As to conditions: at 100 nM.

The target of test [2] is Proto-oncogene tyrosine-protein kinase ROS (Homo sapiens) (UniProt P08922). As to conditions: at 1 µM.
In test [3] the target is Cyclin-dependent kinase 2 (Homo sapiens, UniProt P24941). In words: Selectivity interaction (Kinase panel (enzymatic assay)) EUB0000698a CDK2.
Test [4] deals with T2, Phosphatidylinositol 5-phosphate 4-kinase type-2 beta (Homo sapiens) (UniProt P78356).
T2 sequence (whole entry): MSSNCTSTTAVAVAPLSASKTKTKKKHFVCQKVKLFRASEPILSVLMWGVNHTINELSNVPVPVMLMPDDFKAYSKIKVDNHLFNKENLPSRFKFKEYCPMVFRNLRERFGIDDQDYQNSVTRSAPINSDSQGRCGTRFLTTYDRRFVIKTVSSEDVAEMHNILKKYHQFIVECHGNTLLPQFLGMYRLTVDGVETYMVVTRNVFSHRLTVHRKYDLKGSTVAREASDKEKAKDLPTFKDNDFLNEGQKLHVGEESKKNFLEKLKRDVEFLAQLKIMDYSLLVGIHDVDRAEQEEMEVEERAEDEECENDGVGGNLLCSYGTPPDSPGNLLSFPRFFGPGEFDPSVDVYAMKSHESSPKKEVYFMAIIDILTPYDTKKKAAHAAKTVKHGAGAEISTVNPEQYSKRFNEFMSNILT
In words: Selectivity interaction (KinomeScan (DiscoverX)) EUB0000698a PIP4K2B. The note with it: at 10 µM.

The target of test [5] is T3, Mitogen-activated protein kinase 15 (Homo sapiens) (UniProt Q8TD08).
T3 sequence (whole entry): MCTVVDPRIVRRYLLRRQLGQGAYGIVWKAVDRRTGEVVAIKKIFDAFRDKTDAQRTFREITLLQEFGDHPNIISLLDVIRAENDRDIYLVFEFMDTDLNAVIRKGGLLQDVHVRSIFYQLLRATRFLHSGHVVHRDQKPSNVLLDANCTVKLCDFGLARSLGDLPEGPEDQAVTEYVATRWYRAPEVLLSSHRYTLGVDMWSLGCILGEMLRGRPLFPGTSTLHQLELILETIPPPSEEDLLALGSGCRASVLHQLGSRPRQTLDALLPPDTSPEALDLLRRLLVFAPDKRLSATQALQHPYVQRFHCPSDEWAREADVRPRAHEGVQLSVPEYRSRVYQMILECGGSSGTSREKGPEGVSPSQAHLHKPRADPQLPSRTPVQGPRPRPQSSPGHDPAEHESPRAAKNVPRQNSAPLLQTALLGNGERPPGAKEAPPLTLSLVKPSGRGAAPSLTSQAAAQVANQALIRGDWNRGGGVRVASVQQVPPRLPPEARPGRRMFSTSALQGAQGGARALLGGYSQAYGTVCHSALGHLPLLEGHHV
Kind of test: Selectivity interaction (KinomeScan (DiscoverX)) EUB0000702a MAPK15. As to conditions: at 1 µM.

Test [6] addresses Tyrosine-protein kinase JAK2 (Homo sapiens, UniProt O60674). Kind of test: Selectivity interaction (KinomeScan (DiscoverX)) EUB0000702a JAK2. The note with it: at 1 µM.
Test [7] deals with Non-receptor tyrosine-protein kinase TYK2 (Homo sapiens, UniProt P29597). Kind of test: Selectivity interaction (Enzymatic assay) EUB0000178b TYK2.
The target in test [8] is T4, Serine/threonine-protein kinase Sgk1 (Homo sapiens) (UniProt O00141).
T4 sequence (whole entry): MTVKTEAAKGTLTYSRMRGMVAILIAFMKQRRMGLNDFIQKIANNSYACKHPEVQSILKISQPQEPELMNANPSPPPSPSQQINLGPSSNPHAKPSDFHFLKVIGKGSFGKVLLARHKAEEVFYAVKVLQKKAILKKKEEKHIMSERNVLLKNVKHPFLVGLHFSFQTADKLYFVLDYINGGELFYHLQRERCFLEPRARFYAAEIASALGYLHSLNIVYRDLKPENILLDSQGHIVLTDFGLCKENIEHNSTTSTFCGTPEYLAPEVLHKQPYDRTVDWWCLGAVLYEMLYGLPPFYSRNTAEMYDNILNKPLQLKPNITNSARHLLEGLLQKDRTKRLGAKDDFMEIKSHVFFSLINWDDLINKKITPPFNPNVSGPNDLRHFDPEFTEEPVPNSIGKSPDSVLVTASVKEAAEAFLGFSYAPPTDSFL
In words: Selectivity interaction (Kinase panel (University of Dundee)) EUB0000169b SGK1. The note with it: at 10 µM.

The target in test [9] is Tyrosine-protein kinase Lck (Homo sapiens, UniProt P06239). Kind of test: Selectivity interaction (Kinase panel (University of Dundee)) EUB0000169b LCK. The note with it: at 10 µM.
Test [10] deals with Ribosomal protein S6 kinase beta-1 (Homo sapiens) (UniProt P23443). As to conditions: at 10 µM.

% of control and IC50 data for six compounds are collected here from ChEMBL document CHEMBL5212743, “Selectivity Literature for EUbOPEN Chemogenomics Library wave 3” (2023).

A value given as a limit tells only on which side of the number the result lay.

Chain of Proto-oncogene tyrosine-protein kinase ROS (Homo sapiens) (P08922 whole entry): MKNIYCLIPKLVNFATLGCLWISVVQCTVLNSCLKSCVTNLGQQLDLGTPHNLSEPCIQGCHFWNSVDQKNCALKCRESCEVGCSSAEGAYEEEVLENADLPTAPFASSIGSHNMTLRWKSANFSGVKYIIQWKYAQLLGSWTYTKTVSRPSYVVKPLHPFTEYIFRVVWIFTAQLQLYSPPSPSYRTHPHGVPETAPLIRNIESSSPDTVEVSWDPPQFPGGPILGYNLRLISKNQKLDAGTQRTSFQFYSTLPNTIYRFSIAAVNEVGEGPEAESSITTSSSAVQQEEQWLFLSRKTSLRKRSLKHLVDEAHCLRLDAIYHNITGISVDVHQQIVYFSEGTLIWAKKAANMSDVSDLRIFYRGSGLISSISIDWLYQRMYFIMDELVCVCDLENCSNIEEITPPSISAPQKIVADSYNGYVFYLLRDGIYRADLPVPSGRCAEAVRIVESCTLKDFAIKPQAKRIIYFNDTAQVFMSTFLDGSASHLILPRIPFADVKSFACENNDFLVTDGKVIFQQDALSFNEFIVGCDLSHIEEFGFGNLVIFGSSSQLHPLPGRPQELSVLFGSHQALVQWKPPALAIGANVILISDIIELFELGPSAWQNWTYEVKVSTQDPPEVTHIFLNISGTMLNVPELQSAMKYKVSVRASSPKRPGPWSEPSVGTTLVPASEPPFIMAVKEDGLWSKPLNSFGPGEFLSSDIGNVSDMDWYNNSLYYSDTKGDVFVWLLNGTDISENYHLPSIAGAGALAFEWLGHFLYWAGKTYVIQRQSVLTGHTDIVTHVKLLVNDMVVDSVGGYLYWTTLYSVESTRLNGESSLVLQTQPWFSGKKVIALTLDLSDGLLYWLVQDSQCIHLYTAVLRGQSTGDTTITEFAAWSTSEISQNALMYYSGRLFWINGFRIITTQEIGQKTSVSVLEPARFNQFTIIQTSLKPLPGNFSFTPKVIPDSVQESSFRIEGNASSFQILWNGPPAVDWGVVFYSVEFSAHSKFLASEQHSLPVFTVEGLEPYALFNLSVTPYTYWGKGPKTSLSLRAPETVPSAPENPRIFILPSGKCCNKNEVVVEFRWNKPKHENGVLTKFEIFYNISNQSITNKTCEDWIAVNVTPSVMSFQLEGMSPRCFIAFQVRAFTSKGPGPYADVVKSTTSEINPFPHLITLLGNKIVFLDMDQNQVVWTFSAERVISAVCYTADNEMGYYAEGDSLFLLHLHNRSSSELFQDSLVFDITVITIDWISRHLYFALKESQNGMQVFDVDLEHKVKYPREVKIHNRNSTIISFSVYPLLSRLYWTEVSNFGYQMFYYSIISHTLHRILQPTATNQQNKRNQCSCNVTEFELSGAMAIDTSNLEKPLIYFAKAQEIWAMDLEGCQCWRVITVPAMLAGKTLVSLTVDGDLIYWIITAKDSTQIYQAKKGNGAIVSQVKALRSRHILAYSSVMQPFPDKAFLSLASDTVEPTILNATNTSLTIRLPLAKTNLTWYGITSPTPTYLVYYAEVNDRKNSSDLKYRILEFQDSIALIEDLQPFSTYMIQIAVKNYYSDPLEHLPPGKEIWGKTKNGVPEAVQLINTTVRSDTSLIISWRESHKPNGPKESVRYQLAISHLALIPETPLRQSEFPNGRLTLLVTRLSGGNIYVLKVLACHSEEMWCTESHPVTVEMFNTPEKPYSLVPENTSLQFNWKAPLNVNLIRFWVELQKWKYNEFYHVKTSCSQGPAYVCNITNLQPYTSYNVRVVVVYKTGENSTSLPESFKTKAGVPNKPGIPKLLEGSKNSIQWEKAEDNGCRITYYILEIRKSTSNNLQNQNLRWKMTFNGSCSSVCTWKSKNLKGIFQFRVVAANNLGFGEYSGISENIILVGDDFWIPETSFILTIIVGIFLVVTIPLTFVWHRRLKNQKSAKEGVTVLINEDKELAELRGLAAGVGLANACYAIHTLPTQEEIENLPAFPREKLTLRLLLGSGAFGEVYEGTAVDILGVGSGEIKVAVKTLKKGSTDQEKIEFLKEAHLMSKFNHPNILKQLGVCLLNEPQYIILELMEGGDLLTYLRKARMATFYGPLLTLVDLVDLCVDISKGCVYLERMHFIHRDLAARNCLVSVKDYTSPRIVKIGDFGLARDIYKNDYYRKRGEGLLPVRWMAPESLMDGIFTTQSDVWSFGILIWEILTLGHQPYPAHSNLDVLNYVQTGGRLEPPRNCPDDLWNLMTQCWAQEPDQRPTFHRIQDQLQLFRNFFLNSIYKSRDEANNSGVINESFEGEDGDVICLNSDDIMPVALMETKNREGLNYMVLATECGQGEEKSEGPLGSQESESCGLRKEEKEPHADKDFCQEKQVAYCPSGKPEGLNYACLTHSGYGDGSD
Chain of Tyrosine-protein kinase JAK2 (O60674 whole entry): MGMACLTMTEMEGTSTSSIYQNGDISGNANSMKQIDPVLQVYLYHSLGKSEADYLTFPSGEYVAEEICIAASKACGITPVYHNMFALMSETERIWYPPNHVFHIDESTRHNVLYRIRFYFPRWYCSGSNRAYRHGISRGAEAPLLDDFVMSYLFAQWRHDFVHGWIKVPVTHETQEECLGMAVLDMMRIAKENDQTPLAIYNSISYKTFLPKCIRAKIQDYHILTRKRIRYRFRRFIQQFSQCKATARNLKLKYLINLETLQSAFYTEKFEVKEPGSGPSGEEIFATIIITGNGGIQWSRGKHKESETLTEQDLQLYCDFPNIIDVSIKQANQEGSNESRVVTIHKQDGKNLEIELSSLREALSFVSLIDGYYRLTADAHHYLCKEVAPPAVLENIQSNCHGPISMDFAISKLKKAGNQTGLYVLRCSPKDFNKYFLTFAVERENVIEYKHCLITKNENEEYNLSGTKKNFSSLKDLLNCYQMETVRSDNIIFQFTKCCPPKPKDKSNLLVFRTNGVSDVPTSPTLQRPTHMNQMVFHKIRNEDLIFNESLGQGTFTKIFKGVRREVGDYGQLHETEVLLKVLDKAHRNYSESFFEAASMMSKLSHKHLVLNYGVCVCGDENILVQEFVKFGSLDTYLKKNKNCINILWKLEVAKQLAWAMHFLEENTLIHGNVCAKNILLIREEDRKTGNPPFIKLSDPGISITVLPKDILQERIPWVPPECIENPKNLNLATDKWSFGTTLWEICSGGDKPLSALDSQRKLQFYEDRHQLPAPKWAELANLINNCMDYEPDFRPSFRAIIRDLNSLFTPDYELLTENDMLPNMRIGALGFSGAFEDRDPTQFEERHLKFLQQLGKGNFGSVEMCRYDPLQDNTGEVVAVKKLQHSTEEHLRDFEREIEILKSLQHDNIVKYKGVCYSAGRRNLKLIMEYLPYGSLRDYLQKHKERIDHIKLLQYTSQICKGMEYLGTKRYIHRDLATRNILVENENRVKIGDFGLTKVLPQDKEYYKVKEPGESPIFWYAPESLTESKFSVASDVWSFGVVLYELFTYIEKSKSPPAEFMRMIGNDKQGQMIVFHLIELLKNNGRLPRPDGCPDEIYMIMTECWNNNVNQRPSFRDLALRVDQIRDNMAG
Chain of Ribosomal protein S6 kinase beta-1 (Homo sapiens) (P23443 whole entry, looked up): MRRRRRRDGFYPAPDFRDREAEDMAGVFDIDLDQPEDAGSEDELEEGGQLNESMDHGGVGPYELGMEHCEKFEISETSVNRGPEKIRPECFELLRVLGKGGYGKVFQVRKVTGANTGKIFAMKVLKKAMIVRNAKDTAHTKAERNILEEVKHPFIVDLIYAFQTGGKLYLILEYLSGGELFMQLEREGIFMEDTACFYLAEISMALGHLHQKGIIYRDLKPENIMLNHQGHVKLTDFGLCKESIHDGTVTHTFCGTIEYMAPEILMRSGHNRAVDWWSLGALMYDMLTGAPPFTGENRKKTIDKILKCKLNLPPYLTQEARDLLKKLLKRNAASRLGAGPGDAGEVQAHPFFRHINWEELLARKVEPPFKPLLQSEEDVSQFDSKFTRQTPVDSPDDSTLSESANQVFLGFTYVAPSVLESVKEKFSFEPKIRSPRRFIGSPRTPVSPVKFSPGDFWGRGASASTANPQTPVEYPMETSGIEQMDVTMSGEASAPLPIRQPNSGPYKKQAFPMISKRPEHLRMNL
Chain of Tyrosine-protein kinase Lck (P06239 2-509 limits assumed): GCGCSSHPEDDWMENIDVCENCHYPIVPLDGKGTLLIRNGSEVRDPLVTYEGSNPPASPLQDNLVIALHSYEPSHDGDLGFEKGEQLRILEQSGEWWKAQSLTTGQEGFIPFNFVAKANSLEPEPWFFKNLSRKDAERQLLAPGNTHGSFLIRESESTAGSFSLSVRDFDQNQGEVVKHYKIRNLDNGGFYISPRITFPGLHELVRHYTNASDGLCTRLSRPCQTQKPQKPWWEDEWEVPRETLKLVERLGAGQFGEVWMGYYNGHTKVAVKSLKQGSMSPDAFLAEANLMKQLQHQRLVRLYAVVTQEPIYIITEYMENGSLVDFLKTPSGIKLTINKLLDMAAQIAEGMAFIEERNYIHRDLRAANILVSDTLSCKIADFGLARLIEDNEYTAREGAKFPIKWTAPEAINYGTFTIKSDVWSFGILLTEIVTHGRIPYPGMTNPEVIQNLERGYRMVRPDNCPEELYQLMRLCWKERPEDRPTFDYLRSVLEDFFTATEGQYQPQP

Take `CNC(=O)c1ccc(Nc2ncc(C(F)(F)F)c(NCc3nccnc3N(C)S(C)(=O)=O)n2)cc1` [DEFACTINIB]: in test [1], the % of control worked out at 8.2%.

Regarding `CCOc1cn(-c2ccc(F)cc2C)nc1C(=O)Nc1ccc(Oc2ccnc3cc(OC)c(OC)cc23)c(F)c1`, the % of control in [2] is less than 10%. Consider `COc1cc2ncn(-c3cc(OCc4ccccc4C(F)(F)F)c(C(N)=O)s3)c2cc1OC` [GW843682X], for which half-maximal inhibition in test [3] (IC50) required 7.6 µM. The same compound displayed a % of control in [4] of 6.6%. For the compound `CN(c1ccnc(CNc2nc(Nc3ccc4c(c3)CC(=O)N4)ncc2C(F)(F)F)n1)S(C)(=O)=O` [PF-00911705], the % of control turned out to be 4.8% in test [5] and 3.8% in [6]. In test [7], `CN1C(=O)c2sccc2N(C)c2nc(Nc3ccc(S(N)(=O)=O)cc3)ncc21` displayed a half-maximal inhibitory concentration (IC50) of 0.254 µM. `CC[C@@H]1C(=O)N(C)c2cnc(Nc3ccc(C(=O)NC4CCN(C)CC4)cc3OC)nc2N1C1CCCC1`: the % of control was determined as 80% in [8], 55% in test [9] and 102% in test [10].

Usually IC50 stands for the point on the concentration scale where inhibition reaches its midpoint.
